Assays:
[1] = test system: adjuvant-induced arthritis; assay: Adjuvant-Induced Arthritis (AIA) in Lewis rats; details: 35 days and 45 days treatment sections
[2] = test system: HBV; assay: Efficacy of RAAS-8 in the HBV mouse hydrodynamic injection model; type: in vivo, BALB/c mice
Procedure: 3.1 Hydrodynamic Injection and Compound Administration • 3.1.1. From day −7 to day 0, all 5 mice in group 4 were administrated i.p./i.v. with test article daily for 8 • days according to Table 2. • 3.1.2. On day 0, all groups of mice were hydrodynamicly injected via tail vein with pcDNA3.1/HBV plasmid DNA in a volume of normal saline equal to 8% of a mouse body weight. The plasmid DNA solution for injections was prepared one day before injection and then stored in 4E until injection. • 3.1.3. From day 0 to day 5, mice in groups 1-3 were weighed and treated with compounds or vehicle according to the regimen in Table 2. For groups 1 and 3, the first dosing was executed 4 hours pre HDI. For groups 2, the first dosing was executed 4 hours post HDI. For group 4, the last dosing was carried out 4 hours post HDI. • 3.1.4. All mice were submandibularly bled for plasma preparation according to the design in Table 1. • 3.1.5. All mice were sacrificed and dissected to obtain livers (two pieces of left lobe, one piece of middle lobe and one piece of right lobe) according to the regimen in table 1. Isolated livers were snap frozen in liquid nitrogen immediately upon collected.
3.2.1 Detect HBV DNA Replication Level in Plasma • 3.2.1.1 Isolate DNA from 50 μl plasma using QIAamp 96 DNA Blood Kit. DNA was eluted with 120 μl ddH2O. • 3.2.1.2. Run qPCR for HBV DNA quantification. • a) Dilute HBV plasmid standard by 10-fold from 10^7 copies/μl to 10 copies/μl. • b) Prepare qPCR mix as shown below.
To eliminate the influence of input HBV plasmid, primers and probe targeting HBV sequence which detect newly replicated HBV DNA and input HBV plasmid DNA and targeting pcDNA3.1 plasmid backbone sequence which only detect the input plasmid DNA were used to do real-time PCR, respectively.
HBV DNA quantity=DNA determined by HBV primer-DNA determined by plasmid primer.
Dilute the plasma 500 fold;
Detect HBsAg level in 50 μl diluted plasma by using HBsAg ELISA kit.
3.2.3.1 Liver DNA Isolation • a) Homogenize the liver tissue with Qiagen Tissue Lyser in 10 mM Tris.HCl, 10 mM EDTA, pH7.5. • b) Spin samples. Transfer the supernatant to a new tube containing equal volume of 2× proteinase K digestion buffer. Incubate at 50[…] for 3 hours. • c) Extract with phenol: chloroform: Isoamyl alcohol. • d) Transfer the upper phase to new tubes, add RNase A and incubate at 37° C. for 30 min. • e) Extract with phenol: chloroform: Isoamyl alcohol. • f) Transfer the upper phase to new microfuge tubes, add 0.7-1 volume of isopropanol, add GlycoBlue Coprecipitant to 50 μg/mL, incubate at −20[…] for 30 min. • g) Centrifuge (12000 g, 10 min) to precipitate DNA. • h) Wash the precipitate with 70% ethanol. Dissolve it in 25 μl ddH2O. Store DNA at −20[…] until use.
The total liver DNA was diluted to 10 ng/μl. […]

[3] = test system: HBV; assay: Efficacy of AFOD RAAS 105 in the HBV mouse hydrodynamic injection model; type: in vivo, BALB/c mice
Procedure: From day −7 to day 0, mice in groups 6-7 are administrated IP/IV by turn with test article daily for 8 days according to Table 3.
On day 0, mice from group 1 to group 7 are hydrodynamically injected through tail vein with pcDNA3.1/HBV plasmid DNA in a volume of normal saline equal to 8% of a mouse body weight within 5 seconds. The plasmid DNA solution for injections is prepared before injection.
From day 0 to day 4, mice in groups 3-5 are administrated IP/IV by turn with test article daily for 5 days according to Table 2. From day 0 to day 4, mice in groups 1 and 2 are administrated PO with vehicle or ETV daily for 5 days according to Table 1. For groups 1-5, the first dosing is executed 4 hours post hydrodynamic injection. For groups 6-7, the last dosing is executed 4 hours pre hydrodynamic injection.
Mice from group 1 to group 7 are submandibularly bled for plasma preparation according to the design in Table 1. The blood samples will be collected in a tube containing heparin sodium and centrifuged at 7000×g and 4° C. for 10 min to obtain plasma samples.
On day 5, all mice in groups 1-7 are sacrificed and dissected to obtain livers (two pieces of left lobe, one piece of middle lobe and one piece of right lobe) according to the regimen in table 1. […]
Run qPCR for HBV DNA quantification. • a. […]
HBV DNA quantity=DNA determined by HBV primer-DNA determined by plasmid primer. […]

SMILES | body weight vs saline group [1] | ssDNA in liver by southern blot ([2]; RASS 8 prophylactic treatment or ETV treatment) | HBV intermediate DNA in liver by real-time PCR ([2]; day 5) | HBsAg level in plasma ([2]; therapeutic treatment, within 5 days post HDI) | inhibition to HBV replication (plasma HBV DNA) ([2]; therapeutically-treated, day 3 post HDI to end) | HBV replication in livers by real-time PCR ([3]; day 5) | HBsAg generation ([3]; oral 0.1 mg/kg, day 3)
C[C@@H]1C[C@H]2[C@@H]3CCC4=CC(=O)C=C[C@]4(C)[C@@]3(F)[C@@H](O)C[C@]2(C)[C@@]1(O)C(=O)CO [Dex, Dexamethasone] | reduction of body weight |  |  |  |  |  | 
C=C1[C@H](CO)[C@@H](O)C[C@@H]1n1cnc2c(=O)[nH]c(N)nc21 [entecavir, Entecavir, reference compound] |  | decreased dramatically | significantly decreased | didn't have significant inhibition | significant inhibition | significantly inhibited HBV replication in livers | significant increase

Reference: patent US20170266266A1, “Functions of 55 Newfound Proteins and Their Medicinal Application in the Treatment and Prevention of Disease” (priority 2012, published 2017)
